In patent publication US20150011566A1, “N-PHENYLPIPERAZINE DERIVATIVES THAT ARE ANTAGONISTS OF A1A, A1D ADRENOCEPTORS AND 5-HT1A RECEPTORS FOR THE TREATMENT OF BENIGN PROSTATE HYPERPLASIA, PHARMACEUTICAL COMPOSITIONS CONTAINING THE SAME” (UNIVERSIDADE FEDERAL DO RIO DE JANEIRO-UFRJ, priority 2012, published 2015):
Read-outs that look alike come from different tables or passages of the source.

How the values were obtained:
5-HT2A receptors = molecular target: T1, 5-HT2A receptors (Rattus norvegicus, UniProt P14842); assay: [3H]-ketanserin binding to 5-HT2A receptors (rat cortex membranes)
T1 construct: from tissue; host or cells: rat cortex membranes
T1 sequence (P14842 whole entry): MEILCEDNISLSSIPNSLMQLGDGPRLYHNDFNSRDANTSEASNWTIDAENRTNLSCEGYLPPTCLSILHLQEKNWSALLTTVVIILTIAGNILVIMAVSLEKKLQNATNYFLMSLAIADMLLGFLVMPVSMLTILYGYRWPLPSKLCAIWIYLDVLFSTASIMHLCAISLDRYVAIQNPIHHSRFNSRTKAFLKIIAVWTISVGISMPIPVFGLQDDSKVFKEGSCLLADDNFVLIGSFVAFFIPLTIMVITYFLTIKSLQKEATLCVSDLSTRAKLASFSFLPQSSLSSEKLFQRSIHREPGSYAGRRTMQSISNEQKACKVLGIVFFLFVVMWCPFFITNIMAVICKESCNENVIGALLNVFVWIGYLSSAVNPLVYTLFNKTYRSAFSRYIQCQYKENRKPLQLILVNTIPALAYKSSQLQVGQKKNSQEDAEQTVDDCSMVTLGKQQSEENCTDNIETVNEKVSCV
Procedure: Membrane preparations of rat cortex as described previously in the literature were performed. The organs were homogenized in a Potter with the aid of a motor unit (Fisatom) and Teflon piston in the proportion of 20 parts of 50 mM Tris HCl (pH 7.4 at 4° C.) for one piece of material, three times for 30 seconds each time, at intervals the solution was allowed to stand on ice for 1 minute.
Then it was performed a centrifugation at 900×g for 10 minutes at 4° C. It was obtained a […] which was resuspended in solution cold 50 mM Tris-HCl (pH 7.4) and the same procedure was performed once more. The supernatant was then centrifuged at 48,000×g for 10 minutes at 4° C. yielding a pellet which was resuspended at a ratio of 20 parts of 50 mM Tris HCl (pH 7.4 at 4° C.) for one piece of material, and incubated at 37° C. for 10 minutes in order to remove the endogenous neurotransmitters. Finally, centrifugation two times more at 48,000×g was performed for 10 minutes at 4° C., and then the final pellet was resuspended in a solution of 50 mM Tris-HCl (pH 7.4).
The binding assays for 5-HT2A receptors were performed as described in the literature. […] (solvent for dilution of the LDT's), to determine the total binding, or 50 μL non-radioactive ketanserin at 10 μM for the determination of nonspecific binding (final volume of 500 μL). Assays were performed in triplicate.
(§1) After the incubation period, the reaction was stopped by adding 4 ml of ice-cold solution containing 5 mM Tris (pH 7.4), followed by vacuum filtration on glass fiber filter (GMF 3, Filtrak®) previously soaked with solution 0.5% polyethylenoimine The filters were washed three times with 4 mL of ice-cold solution containing 5 mM Tris (pH 7.4) under vacuum to remove all free radioligand. Then the filters were dried and placed in vials containing 5 ml scintillation fluid (4% PPO, 0.1% POPOP w/v in toluene). The radioactivity retained on the filters was then determined in a liquid scintillation counter (Packard Tri-Carb 1600 TR). […] To these receptors were also determined CI50 and Ki parameters.

5-HT1A receptors = molecular target: T2, 5-HT1A receptors (Rattus norvegicus, UniProt P19327); assay: Binding of [3H]p-MPPF with GTP to 5-HT1A receptors; intrinsic activity (Ki low/Ki high); conditions: for pharmacological classification: from Ki low/Ki high; for Ki value ratios for low and high affinity receptor states: in words; for Ki low/Ki high: estimate of intrinsic activity; for Ki: read-out: Ki low, antagonist radioligand [3H] p-MPPF in the presence of GTP
T2 construct: Intrinsic Activity at Native 5-HT1A Receptors; from tissue; host or cells: rat hippocampus membranes
T2 sequence (P19327 1-422): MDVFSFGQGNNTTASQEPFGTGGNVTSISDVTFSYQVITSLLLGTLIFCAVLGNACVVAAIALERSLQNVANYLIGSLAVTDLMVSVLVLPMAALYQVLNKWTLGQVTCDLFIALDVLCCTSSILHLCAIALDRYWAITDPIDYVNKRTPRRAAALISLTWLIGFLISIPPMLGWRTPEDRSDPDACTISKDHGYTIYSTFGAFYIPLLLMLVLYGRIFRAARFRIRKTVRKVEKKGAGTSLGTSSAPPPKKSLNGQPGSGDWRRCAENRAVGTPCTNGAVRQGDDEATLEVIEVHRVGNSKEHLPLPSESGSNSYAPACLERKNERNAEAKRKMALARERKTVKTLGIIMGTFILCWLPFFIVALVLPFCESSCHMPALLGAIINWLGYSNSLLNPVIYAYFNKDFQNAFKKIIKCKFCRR
Procedure: Membrane preparations of rat hippocampus according to previously described by HALL et al (1985) and PEROUTKA (1986) were performed. The homogenization and centrifugation steps were performed identically to that described above for receptors α2A and 5-HT2A receptors.
The binding assays for the 5-HT1A receptors were performed as described previously in the literature and previously standardized in the laboratory through saturation experiments. […] (solvent for dilution of LDT's) for the determination of total binding, or 50 μL non-radioative serotonin at 10 μM to determine the non-specific binding (final volume of 500 μL). Assays were performed in triplicate. […] Assays were performed in triplicate.
as §1, with “polyethylenoimine.” for “polyethylenoimine”, “(composition: 4%” for “(4%”, “w/p” for “w/v”, “For” for “To”, “the […]” for “CI50”
The GTP presence displaces the GPCR to a state of low affinity (Lahti et al, 1992). The intrinsic activity of a substance can be estimated using GPCR agonist or antagonist radioligand appropriate to define the affinity of the substance in the state of high and low affinity receptor, respectively.

muscarinic receptors = type: binding, rat; conditions: Table 14; for Ki: Cheng-Prusoff
[1] = Table 11, Cheng-Prusoff, read-out: Ki
[2] = Table 10, Cheng-Prusoff, read-out: Ki
[3] = Table 10, read-out: log CI50 ± EPM (converted)

With `CCCN1CCN(c2ccccc2OC)CC1` [LDT 63] the “log IC50 (M)” value (5-HT2A receptors; Table 11) was −4.86 ± 0.13 M and the Ki (5-HT2A receptors; [1]) was 8850 nM.

`COc1cccc(CCN2CCN(c3ccccc3OC)CC2)c1` [LDT 3] was tested, and the pharmacological classification (5-HT1A receptors; Table 13) was “antagonist”, the “Ki value ratios for low and high affinity receptor states” value (5-HT1A receptors) was “close to the unity” and the IC50 (5-HT2A receptors) was 70.8 nM. The Ki (5-HT2A receptors) was 45.2 nM, the “-log 1050 (M)” value (muscarinic receptors) was 4.26 ± 0.07 M and the Ki (muscarinic receptors) was 56700 nM.

In the case of `COc1ccc(CCN2CCN(c3ccccc3OC)CC2)cc1OC` [LDT 5], the pharmacological classification (5-HT1A receptors; Table 13) is reported as “antagontist”, the IC50 (5-HT2A receptors) is reported as 389 nM and the Ki (5-HT2A receptors) is reported as 248 nM. For the same compound, the “-log 1050 (M)” value (muscarinic receptors) was 3.97 ± 0.06 M and the Ki (muscarinic receptors) was 108000 nM.

With `COc1ccccc1N1CCN(CCc2ccccc2)CC1` [LDT 2] the IC50 (5-HT2A receptors) was 74.1 nM and the Ki (5-HT2A receptors) was 47.4 nM.

`CCN1CCN(c2ccccc2)CC1` [LDT 39] was tested, and the “log IC50 (M)” value (5-HT2A receptors; Table 11) was −5.16 ± 0.16 M and the Ki (5-HT2A receptors; [1]) was 4440 nM.

In the case of `CCCCCN1CCN(c2ccccc2OC)CC1` [LDT 65], the “Ki low/Ki high” value (5-HT1A receptors; Table 9) is reported as 1.18, the IC50 (5-HT2A receptors) is reported as 4570 nM and the Ki (5-HT2A receptors) is reported as 2930 nM. For the same compound, the “-log 1050 (M)” value (muscarinic receptors) was 3.3 ± 0.08 M and the Ki (muscarinic receptors) was 172000 nM.

For `CCN1CCN(c2ccccc2O)CC1` [LDT 70], the “log IC50 (M)” value (5-HT2A receptors; Table 11) was −4.20 ± 0.03a M and the Ki (5-HT2A receptors; [1]) was 40400 nM.

With `CCOc1ccccc1N1CCN(CCc2ccc3c(c2)OCO3)CC1` [LDT 8] the pharmacological classification (5-HT1A receptors; Table 13) was “partial antagonist”, the “Ki value ratios for low and high affinity receptor states” value (5-HT1A receptors) was “close to the unity” and the Ki (5-HT1A receptors; Table 13) was 0.62 nM. For the same compound, the Ki (5-HT2A receptors; [2]) was 248 nM, the IC50 (5-HT2A receptors; [3]) was 389 nM and the “-log 1050 (M)” value (muscarinic receptors) was 4.48 ± 0.07 M. It also gave a Ki (muscarinic receptors) of 33900 nM.

For `COc1ccc(CCN2CCN(c3ccccc3OC)CC2)cc1` [LDT 4], the IC50 (5-HT2A receptors) was 69.2 nM and the Ki (5-HT2A receptors) was 44.2 nM.

Compound `COc1ccccc1N1CCN(CCC2CCCCC2)CC1` [LDT 6] has a Ki (5-HT2A receptors; [2]) of 376 nM and an IC50 (5-HT2A receptors; [3]) of 589 nM.

With `CCCCCCN1CCN(c2ccccc2OC)CC1` [LDT 66] the Ki (5-HT1A receptors; Table 9) was 9 nM, the “Ki low/Ki high” value (5-HT1A receptors; Table 9) was 1.80 and the “log IC50 (M)” value (5-HT2A receptors; Table 11) was −5.57 ± 0.16b M. For the same compound, the Ki (5-HT2A receptors; [1]) was 1720 nM, the “-log 1050 (M)” value (muscarinic receptors) was 3.8 ± 0.08 M and the Ki (muscarinic receptors) was 54200 nM.

For `CCN1CCN(c2ccccc2OC)CC1` [LDT 62], the “log IC50 (M)” value (5-HT2A receptors; Table 11) was −5.00 ± 0.06 M and the Ki (5-HT2A receptors; [1]) was 6410 nM.

In the case of `CCCCN1CCN(c2ccccc2OC)CC1` [LDT 64], the “log IC50 (M)” value (5-HT2A receptors; Table 11) is reported as −5.06 ± 0.09 M and the Ki (5-HT2A receptors; [1]) is reported as 5580 nM.

For `CCOc1ccccc1N1CCN(CC)CC1` [LDT 69], the “log IC50 (M)” value (5-HT2A receptors; Table 11) was −5.02 ± 0.06 M and the Ki (5-HT2A receptors; [1]) was 6120 nM.

`CCCCCCCN1CCN(c2ccccc2OC)CC1` [LDT 67] was tested, and the Ki (5-HT1A receptors; Table 9) was 6.7 nM, the “Ki low/Ki high” value (5-HT1A receptors; Table 9) was 0.37 and the “log IC50 (M)” value (5-HT2A receptors; Table 11) was −5.53 ± 0.13b M. The Ki (5-HT2A receptors; [1]) was 1890 nM, the “-log 1050 (M)” value (muscarinic receptors) was 4.2 ± 0.02 M and the Ki (muscarinic receptors) was 21000 nM.

With `CCCCCCCCN1CCN(c2ccccc2OC)CC1` [LDT 68] the Ki (5-HT1A receptors; Table 9) was 3.1 nM, the “Ki low/Ki high” value (5-HT1A receptors; Table 9) was 0.34 and the “log IC50 (M)” value (5-HT2A receptors; Table 11) was −5.64 ± 0.08b M. For the same compound, the Ki (5-HT2A receptors; [1]) was 1470 nM, the “-log 1050 (M)” value (muscarinic receptors) was 4.5 ± 0.05 M and the Ki (muscarinic receptors) was 10800 nM.
